Measurements taken from PubChem BioAssay AID248 (DTP/NCI, 2004).
Several values for one entry are separate records, joined by “and”; a condition that tells them apart may be missing. Identical values can stand only once. Inconclusive results and toxic doses are left out. No stated cut-off is given here; in the data, active means T/C of 150% or more; inactive means T/C below 125%.

Test system: L1210 leukemia ip in BDF1 mice, survival T/C
Test: NCI In Vivo Anticancer Drug Screen. Data for tumor model L1210 Leukemia (intraperitoneal) in B6D2F1 (BDF1) mice
Conditions: endpoint: mean survival time, higher = longer survival
Outline: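 Value reflects the ratio of survival in compound-treated mice to survival in vehicle-treated controls, with both groups carrying the same transplanted tumor.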

[1] = dose: 100.0 mg/kg/injection, schedule: Q01DX001 (ip), vehicle: Klucel (hydroxypropylcellulose) (HPC)
[2] = dose: 200.0 mg/kg/injection, schedule: Q01DX001 (ip), vehicle: Klucel (hydroxypropylcellulose) (HPC)
[3] = dose: 400.0 mg/kg/injection, schedule: Q01DX001 (ip), vehicle: Klucel (hydroxypropylcellulose) (HPC)
[4] = dose: 100.0 mg/kg/injection, schedule: Q01DX001 (ip), vehicle: saline
[5] = dose: 200.0 mg/kg/injection, schedule: Q01DX001 (ip), vehicle: saline
[6] = dose: 400.0 mg/kg/injection, schedule: Q01DX001 (ip), vehicle: saline
[7] = dose: 100.0 mg/kg/injection, schedule: Q01DX009 (ip), vehicle: Klucel (hydroxypropylcellulose) (HPC)
[8] = dose: 100.0 mg/kg/injection, schedule: Q04DX003 (ip), vehicle: Klucel (hydroxypropylcellulose) (HPC)
[9] = dose: 200.0 mg/kg/injection, schedule: Q01DX009 (ip), vehicle: Klucel (hydroxypropylcellulose) (HPC)
[10] = dose: 200.0 mg/kg/injection, schedule: Q04DX003 (ip), vehicle: Klucel (hydroxypropylcellulose) (HPC)
[11] = dose: 400.0 mg/kg/injection, schedule: Q04DX003 (ip), vehicle: Klucel (hydroxypropylcellulose) (HPC)
[12] = dose: 25.0 mg/kg/injection, schedule: Q01DX009 (ip), vehicle: Klucel (hydroxypropylcellulose) (HPC)
[13] = dose: 100.0 mg/kg/injection, schedule: Q01DX009 (ip), vehicle: saline with Tween-80
[14] = dose: 100.0 mg/kg/injection, schedule: Q04DX003 (ip), vehicle: saline with Tween-80
[15] = dose: 200.0 mg/kg/injection, schedule: Q01DX009 (ip), vehicle: saline with Tween-80
[16] = dose: 200.0 mg/kg/injection, schedule: Q04DX003 (ip), vehicle: saline with Tween-80
[17] = dose: 400.0 mg/kg/injection, schedule: Q01DX009 (ip), vehicle: saline with Tween-80
[18] = dose: 400.0 mg/kg/injection, schedule: Q04DX003 (ip), vehicle: saline with Tween-80
[19] = dose: 50.0 mg/kg/injection, schedule: Q01DX009 (ip), vehicle: Klucel (hydroxypropylcellulose) (HPC)

Measured: T/C

O=Nc1ccc(O)cc1Cl
inactive: [1] 103 % of control and 88 % of control | [2] 117 % of control | [3] 95 % of control and 103 % of control

O=C(CO)NCO
inactive: [4] 103 % of control | [5] 101 % of control | [6] 101 % of control

c1ccc2sc(SSc3nc4ccccc4s3)nc2c1
inactive: dose: 50.0 mg/kg/injection, schedule: Q01DX001 (ip), vehicle: saline 96 % of control | [4] 98 % of control | [7] 86 % of control | [8] 97 % of control | [5] 92 % of control | [9] 96 % of control | [10] 94 % of control | [6] 104 % of control | dose: 400.0 mg/kg/injection, schedule: Q01DX009 (ip), vehicle: Klucel (hydroxypropylcellulose) (HPC) 90 % of control | [11] 90 % of control

Nc1ncc(C[P+](c2ccccc2)(c2ccccc2)c2ccccc2)c(N)n1
inactive: dose: 12.5 mg/kg/injection, schedule: Q04DX003 (ip), vehicle: Klucel (hydroxypropylcellulose) (HPC) 102 % of control | dose: 25.0 mg/kg/injection, schedule: Q04DX003 (ip), vehicle: Klucel (hydroxypropylcellulose) (HPC) 112 % of control | dose: 50.0 mg/kg/injection, schedule: Q04DX003 (ip), vehicle: Klucel (hydroxypropylcellulose) (HPC) 105 % of control

N=C(N)CSS(=O)(=O)O
inactive: dose: 12.5 mg/kg/injection, schedule: Q01DX009 (ip), vehicle: Klucel (hydroxypropylcellulose) (HPC) 107 % of control | dose: 12.5 mg/kg/injection, schedule: Q04DX002 (ip), vehicle: Klucel (hydroxypropylcellulose) (HPC) 104 % of control | [12] 107 % of control | dose: 25.0 mg/kg/injection, schedule: Q04DX002 (ip), vehicle: Klucel (hydroxypropylcellulose) (HPC) 101 % of control | dose: 50.0 mg/kg/injection, schedule: Q04DX002 (ip), vehicle: Klucel (hydroxypropylcellulose) (HPC) 93 % of control

O=C(Nc1cc2c3ccccc3ccc2c2ccccc12)C(F)(F)F
inactive: dose: 100.0 mg/kg/injection, schedule: Q01DX001 (ip), vehicle: carboxymethylcellulose (CMC) 91 % of control | dose: 200.0 mg/kg/injection, schedule: Q01DX001 (ip), vehicle: carboxymethylcellulose (CMC) 92 % of control | dose: 400.0 mg/kg/injection, schedule: Q01DX001 (ip), vehicle: carboxymethylcellulose (CMC) 97 % of control

CCCCCCCCCCCC[n+]1ccc(C)cc1C
inactive: dose: 0.01 mg/kg/injection, schedule: Q01DX015 (ip), vehicle: saline 92 % of control | dose: 0.02 mg/kg/injection, schedule: Q01DX015 (ip), vehicle: saline 98 % of control | dose: 0.04 mg/kg/injection, schedule: Q01DX015 (ip), vehicle: saline 97 % of control | dose: 0.08 mg/kg/injection, schedule: Q01DX015 (ip), vehicle: saline 98 % of control | dose: 0.1 mg/kg/injection, schedule: Q01DX009 (ip), vehicle: saline 97 % of control | dose: 0.1 mg/kg/injection, schedule: Q04DX003 (ip), vehicle: saline 102 % of control | dose: 0.2 mg/kg/injection, schedule: Q01DX009 (ip), vehicle: saline 92 % of control | dose: 0.2 mg/kg/injection, schedule: Q04DX003 (ip), vehicle: saline 97 % of control | dose: 0.4 mg/kg/injection, schedule: Q01DX009 (ip), vehicle: saline 101 % of control | dose: 0.4 mg/kg/injection, schedule: Q04DX003 (ip), vehicle: saline 94 % of control | dose: 0.59 mg/kg/injection, schedule: Q01DX009 (ip), vehicle: saline 91 % of control

CC1(C)CC(OP(=O)(N2CC2)N2CC2)CC(C)(C)N1O
inactive: dose: 50.0 mg/kg/injection, schedule: Q01DX001 (ip), vehicle: water 102 % of control | dose: 100.0 mg/kg/injection, schedule: Q01DX001 (ip), vehicle: water 98 % of control | dose: 200.0 mg/kg/injection, schedule: Q01DX001 (ip), vehicle: water 102 % of control

CNc1ccc(C(=O)c2ccccc2C(=O)O)cc1[N+](=O)[O-]
inactive: [13] 92 % of control | [14] 97 % of control | [15] 95 % of control | [16] 89 % of control | [17] 93 % of control | [18] 94 % of control

Cc1nc(-c2ccccc2)nc2c1CCO2
inactive: [13] 100 % of control | [15] 107 % of control

Cc1cc(CC(O)(C(F)(F)Cl)C(F)(F)Cl)cc(C)n1
inactive: [13] 97 % of control | [15] 94 % of control | [17] 95 % of control

CCOc1nc(Cl)nc2nc[nH]c12
inactive: [4] 102 % of control | [5] 102 % of control | [6] 96 % of control

CCCCCCCN(CCCCCCC)C(C)C(=O)c1ccc2cc(Br)c3ccccc3c2c1 (stereo not given)
inactive: dose: 100.0 mg/kg/injection, schedule: Q01DX001 (ip), vehicle: alcohol 106 % of control | dose: 200.0 mg/kg/injection, schedule: Q01DX001 (ip), vehicle: alcohol 97 % of control | dose: 400.0 mg/kg/injection, schedule: Q01DX001 (ip), vehicle: alcohol 100 % of control

CC(C)=NNC(=O)CNc1cccc(C(F)(F)F)c1
inactive: dose: 100.0 mg/kg/injection, schedule: Q04DX002 (ip), vehicle: Klucel (hydroxypropylcellulose) (HPC) 107 % of control | dose: 200.0 mg/kg/injection, schedule: Q04DX002 (ip), vehicle: Klucel (hydroxypropylcellulose) (HPC) 110 % of control | dose: 400.0 mg/kg/injection, schedule: Q04DX002 (ip), vehicle: Klucel (hydroxypropylcellulose) (HPC) 100 % of control

CCC(C)NC(=O)/C=C/C(=O)NC(C)CC (stereo not given)
inactive: [14] 91 % of control | [16] 100 % of control | [18] 100 % of control

CC(C)(C)NC/C(=C\c1ccccc1)C(=O)c1ccccc1
inactive: dose: 5.0 mg/kg/injection, schedule: Q01DX001 (ip), vehicle: saline 98 % of control | dose: 10.0 mg/kg/injection, schedule: Q01DX001 (ip), vehicle: saline 101 % of control | dose: 20.0 mg/kg/injection, schedule: Q01DX001 (ip), vehicle: saline 98 % of control | [12] 100 % of control | dose: 40.0 mg/kg/injection, schedule: Q01DX001 (ip), vehicle: saline 93 % of control | [19] 98 % of control | dose: 80.0 mg/kg/injection, schedule: Q01DX001 (ip), vehicle: saline 95 % of control | [7] 95 % of control | [8] 94 % of control | [14] 112 % of control | [10] 91 % of control | [11] 96 % of control

CN(C)CC(=O)c1c[nH]c(=O)[nH]c1=O
inactive: [13] 112 % of control | [15] 94 % of control | [17] 102 % of control

CSC(=N)c1cccc(OCCOc2ccccc2)c1
inactive: [19] 96 % of control | [7] 102 % of control | [9] 96 % of control

O=C(N/N=C\c1ccc(O)cc1)N/N=C/c1ccc(O)cc1
inactive: [1] 94 % of control | [2] 95 % of control | [3] 89 % of control

CC1=C/C(=N/N=c2\ccn(O)cc2C)C=CC1=N
inactive: dose: 50.0 mg/kg/injection, schedule: Q04DX002 (sc), vehicle: saline with Tween-80 100 % of control | dose: 100.0 mg/kg/injection, schedule: Q04DX002 (sc), vehicle: saline with Tween-80 100 % of control | dose: 200.0 mg/kg/injection, schedule: Q04DX002 (sc), vehicle: saline with Tween-80 100 % of control | dose: 400.0 mg/kg/injection, schedule: Q04DX002 (sc), vehicle: saline with Tween-80 93 % of control

COCCc1cccc(C)n1
inactive: dose: 100.0 mg/kg/injection, schedule: Q01DX009 (ip), vehicle: saline 93 % of control | dose: 100.0 mg/kg/injection, schedule: Q04DX003 (ip), vehicle: saline 93 % of control | dose: 200.0 mg/kg/injection, schedule: Q01DX009 (ip), vehicle: saline 92 % of control | dose: 200.0 mg/kg/injection, schedule: Q04DX003 (ip), vehicle: saline 94 % of control | dose: 400.0 mg/kg/injection, schedule: Q04DX003 (ip), vehicle: saline 91 % of control

COc1cc(OC)c(NC2=CC(c3ccc(Cl)cc3)OC2=O)cc1Cl (stereo not given)
inactive: [1] 92 % of control | [8] 92 % of control | [2] 94 % of control | [10] 95 % of control | [3] 92 % of control | [11] 95 % of control
